From patent publication US5914348A, “Substance FA-70D, process for producing the same, and uses thereof” (Taiho Pharmaceutical Co., Ltd., priority 1996, dated 1999)
Numbered stars: 1 amine (or outer) side, 2 acyl side, 3 side chain; on linkers, the order of the positions; unused ones are H or OH. Square brackets hold non-standard residues; d marks the D form. Peptide text beside a SMILES is read from it. Cit = NC(=O)NCCC[CH](N)C(=O)O; Phe(ol) = N[CH](CO)Cc1ccccc1; CO = O=C([*:1])[*:2]

Assays:
[1] = Solubility; assay type: physicochemical
[2] = test system: cathepsin series proteases; experiment: Inhibition of cathepsin series proteases; assay type: biochemical
Description: (§1) The inhibitory activity against cathepsin L or cathepsin B was assayed by the method of A. J. Barrett et al. [Biochemical Journal, 201, 189-198, 1982]. The chymotrypsin- or trypsin-hibitory activity was assayed in accordance with the methods described in Tsuru, D. and Funatsu, M. (ed.), Seikagaku Jikkenho-Tanpakushitsu Bunkai Koso II [Methods of Biochemistry, Proteolytic Enzymes II], vol. 31, 7-14, 1993.
(§2) The method for assay of inhibitory activity against cathepsin B is as follows. Thus, 0.5 ml of 400 mM sodium phosphate buffer (pH 6.0) containing 8 mM dithiothreitol and 4 mM tetrasodium ethylenediaminetetracetate, 0.8 ml of an enzyme solution containing 5 μM cathepsin B and 0.1% Brij 35 (Wako Pure Chemical Ind.), and 0.2 ml of an aqueous solution of the compound of the invention were preincubated at 40° C. for 10 minutes. […] The intensity of fluorescence (F) was determined at an exciting wavelength of 350 nm and an emission wavelength of 458 nm. As a control, 0.2 ml of water was added in lieu of 0.2 ml of said aqueous solution of the compound of the invention and the intensity of fluorescence (F0) at 458 nm was similarly measured. The enzyme inhibitory activity was calculated by means of the following formula. […]

[3] = target: cathepsin L (Homo sapiens, UniProt P07711); experiment: Inhibitory activity against cathepsin L (fluorescence, carbobenzoxy-L-phenylalanyl-L-arginine-4-methylcoumaryl-7-amide substrate); assay type: biochemical
Description: as §1
The method for assay of inhibitory activity against cathepsin B is as follows. Thus, 0.5 ml of 400 mM sodium phosphate buffer (pH 6.0) containing 8 mM dithiothreitol and 4 mM tetrasodium ethylenediaminetetracetate, 0.8 ml of an enzyme solution containing 5 μM cathepsin B and 0.1% Brij 35 (Wako Pure Chemical Ind.), and 0.2 ml of an aqueous solution of the compound of the invention were preincubated at 40° C. for 10 minutes. Then, 0.5 ml of a 0.1% aqueous solution of dimethyl sulfoxide containing 20 μM carbobenzoxy-L-phenylalanyl-L-arginine-4-methylcoumaryl-7-amide was added and the mixture was incubated at 40° C. for 10 minutes. The enzymatic reaction was then stopped by adding 2.0 ml of 100 mM sodium acetate buffer (pH 4.3) containing 100 mM sodium monochloroacetate. The intensity of fluorescence (F) was determined at an exciting wavelength of 350 nm and an emission wavelength of 458 nm. As a control, 0.2 ml of water was added in lieu of 0.2 ml of said aqueous solution of the compound of the invention and the intensity of fluorescence (F0) at 458 nm was similarly measured. The enzyme inhibitory activity was calculated by means of the following formula.
(§3) Enzyme inhibitory activity (%)=F/F0 ×100
The inhibitory activity against cathepsin L was assayed as follows. Thus, except that cathepsin L was used in lieu of cathepsin B at the same concentration and the 400 mM sodium phosphate buffer was adjusted to pH 5.5, the above assay procedure for cathepsin B was otherwise repeated to determine the enzyme inhibitory activity.

[4] = target: chymotrypsin (Bos taurus, UniProt P00766); experiment: Inhibitory activity against chymotrypsin (fluorescence, succinyl-L-leucyl-L-leucyl-L-valyl-L-tyrosine-4-methylcoumaryl-7-amide substrate); assay type: biochemical
Description: as §1
(§4) The inhibitory activity against chymotrypsin was assayed in the following manner. Thus, 0.1 ml of 100 mM Tris-HCl buffer (pH 7.5), 0.15 ml of water, 0.01 ml of 5 ng/ml chymotrypsin/water, and 0.04 ml of an aqueous solution of the compound of the invention were preincubated at 37° C. for 5 minutes. Then, 0.1 ml of an aqueous solution containing 100 μM succinyl-L-leucyl-L-leucyl-L-valyl-L-tyrosine-4-methylcoumaryl-7-amide was added and the mixture was incubated at 37° C. for 20 minutes. The enzymatic reaction was stopped by adding 0.5 ml of 100 mM sodium acetate buffer (pH 4.3) containing 100 mM sodium monochloroacetate and the intensity of fluorescence (F) was measured at an exciting wavelength of 350 nm and an emission wavelength of 458 nm. As a control, 0.04 ml of water was added in lieu of 0.04 ml of said aqueous solution of the compound of the invention and the intensity of fluorescence (F0) at 458 nm was similarly measured. The enzyme inhibitory activity was calculated by the following formula.
as §3

[5] = target: T1, trypsin (Bos taurus, UniProt P00760); experiment: Inhibitory activity against trypsin (fluorescence, benzoyl-L-leucyl-L-lysyl-arginine-4-methylcoumaryl-7-amide substrate); assay type: biochemical; conditions: pH 7.5, 37° C., read-out: Enzyme inhibitory activity (%)
T1 sequence (P00760 24-246): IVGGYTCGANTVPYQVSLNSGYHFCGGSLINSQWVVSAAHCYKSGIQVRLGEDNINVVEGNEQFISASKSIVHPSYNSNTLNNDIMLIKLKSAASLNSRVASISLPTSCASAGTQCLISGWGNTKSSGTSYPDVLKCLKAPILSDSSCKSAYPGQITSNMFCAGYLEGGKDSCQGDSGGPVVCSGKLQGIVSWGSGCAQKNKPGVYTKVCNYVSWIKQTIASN
Description: as §1, §4, §3
The inhibitory activity against trypsin was measured as follows. Except that trypsin was used in lieu of chymotrypsin at the same concentration and benzoyl-L-leucyl-L-lysyl-arginine-4-methylcoumaryl-7-amide was used in lieu of succinyl-L-leucyl-L-leucyl-L-valyl-L-tyrosine-4-methylcoumaryl-7-amide at the same concentration, the above procedure for assaying the inhibitory activity against chymotrypsin was otherwise repeated and the enzyme inhibitory activity was calculated in the same manner as above.

[6] = target: T2, papain (Carica papaya, UniProt P00784); experiment: Assay of papain inhibitory activity; assay type: biochemical; conditions: used for identification during purification
T2 sequence (P00784 134-345): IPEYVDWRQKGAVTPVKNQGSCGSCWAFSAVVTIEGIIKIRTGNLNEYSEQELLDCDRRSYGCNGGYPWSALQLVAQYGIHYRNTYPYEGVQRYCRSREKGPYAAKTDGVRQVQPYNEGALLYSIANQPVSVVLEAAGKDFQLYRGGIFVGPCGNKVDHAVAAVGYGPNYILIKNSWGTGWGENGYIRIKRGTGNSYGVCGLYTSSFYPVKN
Description: Detection of active fractions containing Substance FA-70D in each stage was carried out by the assay of papain inhibitory activity (Biochemical Journal, 201, 189-198, 1982).
Thus, 0.5 ml of 400 mM sodium phosphate buffer (pH 6.8) containing 8 mM dithiothreitol and 4 mM tetrasodium ethylenediaminetetracetate, 0.8 ml of an enzyme solution containing 5 μM papain and 0.1% Brij 35 (polyoxyethylene (23) lauryl ether) (Wako Pure Chemical Ind.), and 0.2 ml of an aqueous solution containing a sample were preincubated at 40° C. for 10 minutes. Then, 0.5 ml of a 0.1% aqueous solution of dimethyl sulfoxide containing 20 μM carbobenzoxy-L-phenylalanyl-L-arginine-4-methylcoumaryl-7-amide was added and the mixture was incubated at 40° C. for 10 minutes. The enzymatic reaction was stopped by adding 2.0 ml of 100 mM sodium acetate buffer (pH 4.3) containing 100 mM sodium monochloroacetate and the intensity of fluorescence (F) was measured at an exciting wavelength of 350 nm and an emission wavelength of 458 nm. As a control, 0.2 ml of water was added in lieu of 0.2 ml of said aqueous solution of the sample and the intensity of fluorescence (F0) at 458 nm was similarly measured. The enzyme inhibitory activity was calculated by means of the following formula.
as §3

[7] = target: cathepsin B (Homo sapiens, UniProt P07858); experiment: Inhibitory activity against cathepsin B (fluorescence, carbobenzoxy-L-phenylalanyl-L-arginine-4-methylcoumaryl-7-amide substrate); assay type: biochemical; conditions: pH 6.0, 40° C., read-out: Enzyme inhibitory activity (%)
Description: as §1, §2

Sequence of cathepsin L (P07711 114-333, species assumed): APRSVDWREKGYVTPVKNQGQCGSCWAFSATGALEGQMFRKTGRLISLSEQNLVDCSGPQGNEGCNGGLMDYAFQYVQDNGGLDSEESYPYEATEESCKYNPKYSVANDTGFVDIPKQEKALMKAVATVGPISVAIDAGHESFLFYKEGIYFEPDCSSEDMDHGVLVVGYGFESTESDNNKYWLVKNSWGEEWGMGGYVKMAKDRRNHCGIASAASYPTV

In the case of CC(C)C(NC(=O)C(CCCNC(N)=O)NC(=O)NC(Cc1ccccc1)C(=O)O)C(=O)NC(CO)Cc1ccccc1 (stereo not drawn) [Substance FA-70D] ({Phe-CO}-[Cit]-Val-[Phe(ol)]; configuration not given here), the Solubility ([1]; in chloroform, acetone, ethyl acetate, ether, and hexane) is reported as “Practically insoluble”, the Solubility ([1]; in ethanol) is reported as “slightly soluble” and the Solubility ([1]; in methanol and dimethylsulfoxide) is reported as “readily soluble”. The “inhibit cathepsin series proteases” value [2] was “strongly inhibit”, the “inhibits cathepsin L more strongly than cathepsin B” value ([3]; cathepsin L vs cathepsin B, Test Example 1) was “inhibits cathepsin L more strongly than cathepsin B” and the inhibition at 1 µM ([3]; cathepsin L, FA-70D 10^-6 M, pH 5.5, 40° C., read-out: Enzyme inhibitory activity (%)) was 93.5%. The inhibition at 0.1 µM ([3]; cathepsin L, FA-70D 10^-7 M, pH 5.5, 40° C., read-out: Enzyme inhibitory activity (%)) was 72%, the inhibition at 0.01 µM ([3]; cathepsin L, FA-70D 10^-8 M, pH 5.5, 40° C., read-out: Enzyme inhibitory activity (%)) was 15.1% and the “inhibits chymotrypsin more strongly than trypsin” value ([4]; chymotrypsin vs trypsin, Test Example 1) was “inhibits chymotrypsin more strongly than trypsin”. It also gave an inhibition at 1 µM ([4]; chymotrypsin, FA-70D 10^-6 M, pH 7.5, 37° C., read-out: Enzyme inhibitory activity (%)) of 99.9%, an inhibition at 0.1 µM ([4]; chymotrypsin, FA-70D 10^-7 M, pH 7.5, 37° C., read-out: Enzyme inhibitory activity (%)) of 97.6% and an inhibition at 0.01 µM ([4]; chymotrypsin, FA-70D 10^-8 M, pH 7.5, 37° C., read-out: Enzyme inhibitory activity (%)) of 70.7%. The inhibition at 1 µM ([5]; FA-70D 10^-6 M) was 43.3%, the inhibition at 0.1 µM ([5]; FA-70D 10^-7 M) was 14% and the inhibition at 0.01 µM ([5]; FA-70D 10^-8 M) was 9.4%. The “enzymatic activity of papain inhibited by the substance” value [6] was “inhibited by the substance”, the inhibition at 1 µM ([7]; FA-70D 10^-6 M) was 85.5% and the inhibition at 0.1 µM ([7]; FA-70D 10^-7 M) was 23.7%.
